# Measurements reported in patent US20250019387A1 (Frontier Medicines Corporation, priority 0001, published 2025).
# Molecular target: KRAS G12C and cRAF (Ras-binding domain) interaction (Homo sapiens (Human), UniProt P01116, C118S/C51S/C80L/G12C)
# Assay: Inhibition of KRAS G12C and cRAF binding (AlphaScreen)
# Conditions: GMPPNP-loaded KRAS G12C, 19-20 hours incubation with compound; read-out: IC50 (Inhibition of KRAS G12C and cRAF Binding)
# Procedure, shortened: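 Compounds (DMSO) preincubated 19-20 h at room temperature, then RBD with streptavidin donor and glutathione acceptor beads added in 25 mM Hepes pH 7.4, 150 mM NaCl, 5 mM MgCl2, 0.01% Triton X-100, 2% DMSO for 60-90 min. Emission 570 nm (excitation 680 nm); IC50 by 4-parameter fit. Counter-screen used biotin-AviTag-GST instead of RBD.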
# Chain of KRAS G12C and cRAF (Ras-binding domain) interaction (P01116 other isoform, or with tags, fused parts or gaps G12C/C51S/C80L/C118S): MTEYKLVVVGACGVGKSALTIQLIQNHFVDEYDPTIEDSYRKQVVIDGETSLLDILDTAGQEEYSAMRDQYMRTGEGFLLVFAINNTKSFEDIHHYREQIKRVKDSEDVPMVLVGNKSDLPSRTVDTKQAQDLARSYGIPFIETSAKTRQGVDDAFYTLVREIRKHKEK
row,Structure (SMILES),IC50 [nM]
1,"CN1CCC[C@H]1COc1nc(N(C)[C@@H]2CCN(C#N)C2)c2cnc(-c3cccc4cccc(Cl)c34)c(F)c2n1 [Example 36, (R)-3-((7-(8-chloronaphthalen-1-yl)-8-fluoro-2-(((S)-1-methylpyrrolidin-2-yl)methoxy)pyrido[4,3-d]pyrimidin-4-yl)(methyl)amino)pyrrolidine-1-carbonitrile]",10 to 100
2,"Cc1nccc(/C=C/C(=O)N2CCC[C@@H](N(C)c3nc(OC[C@@]45CCCN4C[C@H](F)C5)nc4c(F)c(-c5cccc6cccc(Cl)c56)ncc34)C2)n1 [Example 198, (E)-1-((R)-3-((7-(8-chloronaphthalen-1-yl)-8-fluoro-2-(((2R,7aS)-2-fluorotetrahydro-1H-pyrrolizin-7a(5H)-yl)methoxy)pyrido[4,3-d]pyrimidin-4-yl)(methyl)amino)piperidin-1-yl)-3-(2-methylpyrimidin-4-yl)prop-2-en-1-one]",> 500
3,"Cc1nccc(/C=C/C(=O)N2CC[C@@H](N(C)c3nc(OC[C@@]45CCCN4C[C@H](F)C5)nc4c(F)c(-c5cccc6cccc(Cl)c56)ncc34)C2)n1 [Example 72, (E)-1-((R)-3-((7-(8-chloronaphthalen-1-yl)-8-fluoro-2-(((2R,7aS)-2-fluorotetrahydro-1H-pyrrolizin-7a(5H)-yl)methoxy)pyrido[4,3-d]pyrimidin-4-yl)(methyl)amino)pyrrolidin-1-yl)-3-(2-methylpyrimidin-4-yl)prop-2-en-1-one]",100 to 500
4,"CN(CC1CCN(C#N)C1)c1nc(OC[C@@H]2CCCN2C)nc2c1CCN(c1cccc3cccc(Cl)c13)C2 (stereo partly drawn) [Example 31, 3-(((7-(8-chloronaphthalen-1-yl)-2-(((S)-1-methylpyrrolidin-2-yl)methoxy)-5,6,7,8-tetrahydropyrido[3,4-d]pyrimidin-4-yl)(methyl)amino)methyl)pyrrolidine-1-carbonitrile]",> 500
5,"CN(c1nc(OCC23CCCN2CCC3)nc2c1CCN(c1cccc3cccc(Cl)c13)C2)[C@@H]1CCN(C(=O)/C=C/c2nc(C(C)(C)C)no2)C1 [Example 149, (R,E)-3-(3-(tert-butyl)-1,2,4-oxadiazol-5-yl)-1-(3-((7-(8-chloronaphthalen-1-yl)-2-((hexahydro-1H-pyrrolizin-7a-yl)methoxy)-5,6,7,8-tetrahydropyrido[3,4-d]pyrimidin-4-yl)(methyl)amino)pyrrolidin-1-yl)prop-2-en-1-one]",10 to 100
6,"C=CC(=O)N1CC[C@@H](N(C)c2nc(OC[C@@]34CCCN3C[C@H](F)C4)nc3c(F)c(-c4cc(O)cc5ccccc45)ncc23)C1 [Example 158, 1-((R)-3-((8-fluoro-2-(((2R,7aS)-2-fluorohexahydro-1H-pyrrolizin-7a-yl)methoxy)-7-(3-hydroxynaphthalen-1-yl)pyrido[4,3-d]pyrimidin-4-yl)(methyl)amino)pyrrolidin-1-yl)prop-2-en-1-one]",< 10
7,"CN1CC[C@@H]1/C=C/C(=O)N1C[C@H](F)[C@@H](N(C)c2nc(OC[C@@]34CCCN3C[C@H](F)C4)nc3c(F)c(-c4cccc5ccc(F)c(F)c45)ncc23)C1 [Example 199, (E)-1-((3S,4S)-3-((7-(7,8-difluoronaphthalen-1-yl)-8-fluoro-2-(((2R,7aS)-2-fluorotetrahydro-1H-pyrrolizin-7a(5H)-yl)methoxy)pyrido[4,3-d]pyrimidin-4-yl)(methyl)amino)-4-fluoropyrrolidin-1-yl)-3-((R)-1-methylazetidin-2-yl)prop-2-en-1-one]",< 10
8,"CN(CCS(=O)(=O)/C=C/CN1CC(F)C1)c1nc(OC[C@@H]2CCCN2C)nc2c1CCN(c1cccc3cccc(Cl)c13)C2 [Example 53, 7-(8-chloro-1-naphthyl)-N-[2-[(E)-3-(3-fluoroazetidin-1-yl)prop-1-enyl]sulfonylethyl]-N-methyl-2-[[(2S)-1-methylpyrrolidin-2-yl]methoxy]-6,8-dihydro-5H-pyrido[3,4-d]pyrimidin-4-amine]",100 to 500
9,"Cc1nsc(/C=C/C(=O)N2CC[C@@H](N(C)c3nc(OC[C@@]45CCCN4C[C@H](F)C5)nc4c(F)c(-c5cccc6cccc(Cl)c56)ncc34)C2)n1 [Example 75, (E)-1-((R)-3-((7-(8-chloronaphthalen-1-yl)-8-fluoro-2-(((2R,7aS)-2-fluorotetrahydro-1H-pyrrolizin-7a(5H)-yl)methoxy)pyrido[4,3-d]pyrimidin-4-yl)(methyl)amino)pyrrolidin-1-yl)-3-(3-methyl-1,2,4-thiadiazol-5-yl)prop-2-en-1-one]",10 to 100
10,"CC(C)OC(=O)/C=C/C(=O)N1CC[C@@H](N(C)c2nc(OC[C@@H]3CCCN3C)nc3c2CCN(c2cccc4cccc(Cl)c24)C3)C1 [Example 11, isopropyl(E)-4-((R)-3-((7-(8-chloronaphthalen-1-yl)-2-(((S)-1-methylpyrrolidin-2-yl)methoxy)-5,6,7,8-tetrahydropyrido[3,4-d]pyrimidin-4-yl)(methyl)amino)pyrrolidin-1-yl)-4-oxobut-2-enoate]",10 to 100
11,"CCc1c(F)ccc2cccc(-c3ncc4c(N(C)[C@@H]5CCN(C(=O)/C=C/c6cc(C)nc(C)n6)C5)nc(OC[C@@]56CCCN5C[C@H](F)C6)nc4c3F)c12 [Example 279, (E)-3-(2,6-dimethylpyrimidin-4-yl)-1-((R)-3-((7-(8-ethyl-7-fluoronaphthalen-1-yl)-8-fluoro-2-(((2R,7aS)-2-fluorotetrahydro-1H-pyrrolizin-7a(5H)-yl)methoxy)pyrido[4,3-d]pyrimidin-4-yl)(methyl)amino)pyrrolidin-1-yl)prop-2-en-1-one]",100 to 500
12,"CN(c1nc(OCC23CCCN2CCC3)nc2c1CCN(c1cccc3cccc(Cl)c13)C2)[C@@H]1CCN(C(=O)/C=C/c2nc(C3COC3)no2)C1 [Example 156, (R,E)-1-(3-((7-(8-chloronaphthalen-1-yl)-2-((hexahydro-1H-pyrrolizin-7a-yl)methoxy)-5,6,7,8-tetrahydropyrido[3,4-d]pyrimidin-4-yl)(methyl)amino)pyrrolidin-1-yl)-3-(3-(oxetan-3-yl)-1,2,4-oxadiazol-5-yl)prop-2-en-1-one]",10 to 100
13,"C=CC(=O)N1C[C@H](N(C)c2nc(OC[C@@]34CCCN3C[C@H](F)C4)nc3c(F)c(-c4cccc5cccc(Cl)c45)ncc23)C[C@@H]1CC#N [Example 87, 2-((2R,4R)-1-acryloyl-4-((7-(8-chloronaphthalen-1-yl)-8-fluoro-2-(((2R,7aS)-2-fluorotetrahydro-1H-pyrrolizin-7a(5H)-yl)methoxy)pyrido[4,3-d]pyrimidin-4-yl)(methyl)amino)pyrrolidin-2-yl)acetonitrile]",100 to 500
14,"CN(c1nc(OC[C@@]23CCCN2C[C@H](F)C3)nc2c1CCN(c1cccc3cccc(Cl)c13)C2)[C@@H]1CCN(C(=O)/C=C/c2nc(C3(C)CC3)no2)C1 [Example 114, (E)-1-((R)-3-((7-(8-chloronaphthalen-1-yl)-2-(((2R,7aS)-2-fluorohexahydro-1H-pyrrolizin-7a-yl)methoxy)-5,6,7,8-tetrahydropyrido[3,4-d]pyrimidin-4-yl)(methyl)amino)pyrrolidin-1-yl)-3-(3-(1-methylcyclopropyl)-1,2,4-oxadiazol-5-yl)prop-2-en-1-one]",10 to 100
15,"COC(=O)/C=C/C(=O)N1C[C@@H](N(C)c2nc(OC[C@@H]3CCCN3C)nc3c2CCN(c2cccc4cccc(Cl)c24)C3)C[C@@H]1C [Example 4, methyl(E)-4-((2S,4S)-4-((7-(8-chloronaphthalen-1-yl)-2-(((S)-1-methylpyrrolidin-2-yl)methoxy)-5,6,7,8-tetrahydropyrido[3,4-d]pyrimidin-4-yl)(methyl)amino)-2-methylpyrrolidin-1-yl)-4-oxobut-2-enoate]",> 500

# Same assay, conditions: additional exemplary compounds; KRAS G12C and cRAF binding; read-out: RAF1 RBD IC50
row,Structure (SMILES),IC50 [nM]
1,CN(C)C(=O)/C=C/C(=O)N1CC[C@@H](N(C)c2nc(OCC34CCCN3CCC4)nc3c2CCN(c2cccc4cccc(Cl)c24)C3)C1,> 500
2,C=CC(=O)N1CCC[C@@H](N(C)c2nc(OCC34CCCN3CCC4)nc3c(F)c(-c4cccc5cccc(Cl)c45)ncc23)C1,> 500
3,C#Cc1c(F)ccc2cccc(-c3ncc4c(N(C)[C@H]5CCN(C(=O)C=C)C5)nc(OC[C@@]56CCCN5C[C@H](F)C6)nc4c3F)c12,100 to 500
4,C=CC(=O)N1C[C@@H](N(C)c2nc(OCC34CCCN3CCC4)nc3c2CCN(c2cccc4cccc(Cl)c24)C3)C[C@@H]1CC#N,> 500
5,CN(C)C/C=C/C(=O)N1CC[C@@H](N(C)c2nc(OC[C@@]34CCCN3C[C@H](F)C4)nc3c2CCN(c2cccc4ccc(F)c(Cl)c24)C3)C1,10 to 100
6,C=CC(=O)N1CC[C@@H]1CN(C)c1nc(OC[C@@]23CCCN2C[C@H](F)C3)nc2c(F)c(-c3cccc4cccc(Cl)c34)ncc12,> 500
7,C=CC(=O)N1CC(CN(C)c2nc(OC[C@@]34CCCN3C[C@H](F)C4)nc3c2CCN(c2cccc4cccc(Cl)c24)C3)C1,100 to 500
8,C=CC(=O)N1CCC(N(c2nc(OC[C@@]34CCCN3C[C@H](F)C4)nc3c2CCN(c2cccc4cccc(Cl)c24)C3)C2CC2)C1 (some centres unmarked),> 500
9,CN(C)C/C=C/C(=O)N1CC[C@@H](N(C)c2nc(OCC34CCCN3CCC4)nc3c(F)c(-c4cccc5cccc(Cl)c45)ncc23)C1,10 to 100
10,CN(c1nc(OCC23CCCN2CCC3)nc2c(F)c(-c3cccc4cccc(Cl)c34)ncc12)[C@@H]1CCN(C(=O)/C=C/c2ncccn2)C1,> 500
11,CN(CCS(=O)(=O)/C=C/CN1CC(F)(F)C1)c1nc(OC[C@@H]2CCCN2C)nc2c(F)c(-c3cccc4cccc(Cl)c34)ncc12,> 500
12,CCOC/C=C/S(=O)(=O)CCN(C)c1nc(OCC23CCCN2CCC3)nc2c1CCN(c1cccc3cccc(Cl)c13)C2,> 500
13,C=CC(=O)N1CC[C@@H](N(C)c2nc(OC[C@@]34CCCN3C[C@H](F)C4)nc3c2CCN(c2cc(O)cc4ccccc24)C3)C1,100 to 500
14,Cc1nccc(/C=C/C(=O)N2C[C@H]3C[C@@H]2CN3c2nc(OC[C@@]34CCCN3C[C@H](F)C4)nc3c(F)c(-c4cccc5cccc(Cl)c45)ncc23)n1,> 500
